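These data come from cells grown in 96-well plates and exposed to compound for 48 hours at five concentrations. GI50 = concentration required for 50% inhibition of growth. TGI marks complete inhibition of growth.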
Tests used:
Test in all cases: DTP human tumour cell line panel, 48 h
HCC-2998 colon = tested on: HCC-2998 colon
SF-268 CNS = tested on: SF-268 CNS
A549 NSCLC = tested on: A549 NSCLC
UACC-257 melanoma = tested on: UACC-257 melanoma
SK-MEL-2 melanoma = tested on: SK-MEL-2 melanoma
OVCAR-8 ovarian = tested on: OVCAR-8 ovarian
SK-OV-3 ovarian = tested on: SK-OV-3 ovarian
SNB-19 CNS = tested on: SNB-19 CNS
RPMI-8226 leukemia = tested on: RPMI-8226 leukemia
COLO 205 colon = tested on: COLO 205 colon

SMILES | GI50 (HCC-2998 colon) [µM] | TGI (HCC-2998 colon) [µM] | GI50 (SF-268 CNS) [µM] | TGI (SF-268 CNS) [µM] | GI50 (A549 NSCLC) [µM] | TGI (A549 NSCLC) [µM] | GI50 (UACC-257 melanoma) [µM] | TGI (UACC-257 melanoma) [µM] | GI50 (SK-MEL-2 melanoma) [µM] | TGI (SK-MEL-2 melanoma) [µM] | GI50 (OVCAR-8 ovarian) [µM] | TGI (OVCAR-8 ovarian) [µM] | GI50 (SK-OV-3 ovarian) [µM] | TGI (SK-OV-3 ovarian) [µM] | GI50 (SNB-19 CNS) [µM] | TGI (SNB-19 CNS) [µM] | GI50 (RPMI-8226 leukemia) [µM] | TGI (RPMI-8226 leukemia) [µM] | GI50 (COLO 205 colon) [µM] | TGI (COLO 205 colon) [µM]
CC(=O)[CH-]C(=O)c1ccccc1.CC(=O)[CH-]C(=O)c1ccccc1.[O-]c1ccc(O)cc1.[O-]c1ccc(O)cc1.[Ti+4] | 16.1 | 33.6 | 14 | 33.9 | 23.5 | > 100 | 21.5 | 70.7 | 14.6 | 28.2 | 13.5 | 31.5 | 24.4 | 76.8 | 18.9 | 40 | 5.63 | > 100 | 18.2 | 32.6
CC(=O)OC1C(O)COC(Oc2c(C)c3c4c(c2O)[C@@H](C)CC[C@@H]4[C@@H](C)C[C@H]3C=C(C)C)C1O (stereo partly specified) | 18.7 | 43.6 | 12.9 | 32.7 | 16 | 40.3 | – | – | 42.7 | > 100 | 23 | 49.8 | 19.6 | 39.2 | 23.4 | 49.6 | 13.3 | 33.2 | 21.5 | 50.5
COc1cc(C(C)c2cc3c(cc2OCCOCCOc2cc4c(cc2C(C)c2cc(OC)c(OC)c(OC)c2)OCO4)OCO3)cc(OC)c1OC (stereo unspecified) | > 100 | > 100 | > 100 | > 100 | > 100 | > 100 | – | > 10 | > 100 | > 100 | > 100 | > 100 | > 100 | > 100 | > 100 | > 100 | – | > 100 | > 100 | > 100
COc1ccc(CNCCCN2C(=O)c3ccc4c5c(ccc(c35)C2=O)C(=O)N(CCCNCCCCNCCCN)C4=O)c(OC)c1OC | 1.67 | 4.79 | 0.955 | 13.2 | 1.69 | 16.1 | 0.334 | 1.38 | 1.72 | 4.11 | 0.618 | 8.2 | 3.18 | 83.2 | 1.42 | 11.4 | 2.7 | 12.2 | 0.194 | 0.391
CCC(=O)[O-].CCC(=O)[O-].N.N.N.N.[Co+3].[O-][Cl+3]([O-])([O-])[O-] | > 100 | > 100 | > 100 | > 100 | > 100 | > 100 | > 100 | > 100 | > 100 | > 100 | > 100 | > 100 | > 100 | > 100 | > 100 | > 100 | > 100 | > 100 | > 100 | > 100
C=C(C)[C@@H]1CC[C@]2(C)[C@H](CC=C3[C@@H]4CC(C)(C)CC[C@]4(C(=O)OC)CC[C@]32C)[C@@]1(C)CC/C(N)=N/O | 1.86 | 3.67 | 1.96 | 4.76 | 2.15 | 7.75 | 2.01 | 5.34 | 1.78 | 3.95 | 2.27 | 6.29 | 4.62 | 27.2 | 2.21 | 5.73 | 1.95 | 6.57 | 2.46 | 6.54
CCCCCCCCOC(=O)c1cc(O)c(O)c(O)c1 | 6 | 18.6 | 1.49 | 12.1 | 12.7 | 49 | 6.4 | 45.4 | 4.72 | 18.2 | 3.14 | 37.5 | 7.28 | 28 | 5.27 | > 58.9 | 0.511 | > 100 | 9.36 | 24.8
COC(=O)c1c(C(=O)OC)c(C(=O)OC)c(C(=O)OC)c1C(=O)OC | – | > 100 | – | > 100 | – | > 100 | – | > 100 | – | > 100 | – | > 100 | – | > 100 | – | > 100 | – | > 100 | – | > 100
COc1cc(C)c(N(C)C(=O)CN(C)C)cc1Nc1nc(Nc2cccc(F)c2C(N)=O)c2cc[nH]c2n1 | > 23.1 | > 25 | > 25 | > 25 | > 25 | > 25 | > 15.1 | > 25 | > 25 | > 25 | > 25 | > 25 | > 25 | > 25 | > 25 | > 25 | > 22 | > 25 | 5.63 | > 25
COc1ccc(-c2ccc(=O)oc2-c2cc(OC)c(OC)c(OC)c2)cc1O | 0.0379 | 0.426 | 0.0606 | > 34.8 | 0.0595 | > 100 | 0.099 | > 100 | 0.315 | > 100 | 0.0498 | > 100 | 0.0307 | > 100 | 0.0571 | > 100 | 0.0251 | 0.956 | 2.21 | > 37.5
O=c1c2ccccc2c(C=NCCNCCO)c2oc3ccccc3n12 | 13.1 | 25.8 | 3.63 | 15.8 | 4.03 | 17 | 12.1 | 26.7 | 21.3 | 50.6 | 4.88 | 19.7 | 3.58 | 15.9 | 6.33 | 19.6 | 7.67 | 31.6 | 3.27 | 15.8
CN([N-]C(=O)CC(=O)[N-]N(C)C(=S)c1ccccc1)C(=S)c1ccccc1.[Cu+2] | 0.0598 | 0.176 | 0.037 | 0.176 | 0.0223 | 0.119 | < 0.01 | 0.063 | 0.113 | 0.263 | 0.0598 | 0.232 | 0.0263 | 0.114 | 0.129 | 0.261 | 0.0284 | 0.224 | < 0.01 | 0.0256

— PubChem BioAssay (NCI)
